Assays:
[1] = system: SB.mhdgc-1; assay: viability at highest tested concentration (MAXR) relative to DMSO; higher = less cytotoxic; conditions: SB.mhdgc-1 (hereditary c.1380delA CDH1 gastric cancer)
Procedure, shortened: (§1)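 Reported here is DMSO-normalised viability, either at the highest concentration or as a trapezoidal area under the curve. Hereditary or sporadic patient-derived gastric cancer cells received compound by pintool at 11 threefold-diluted concentrations and were read with CellTiter-Glo after 48 h.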

[2] = system: SB.msgc-1; assay: as above; conditions: SB.msgc-1 (sporadic gastric cancer)
Procedure, shortened: as §1

[3] = system: SB.mhdgc-1; assay: area under the dose-response curve of % viability (trapezoidal, 11 doses) (% viability x log10 concentration); higher = less cytotoxic; conditions: SB.mhdgc-1 (hereditary c.1380delA CDH1 gastric cancer)
Procedure, shortened: as §1

[4] = system: SB.msgc-1; assay: as above; conditions: SB.msgc-1 (sporadic gastric cancer)
Procedure, shortened: as §1

In the case of `CCc1cc(/C(C)=N/OCc2ccc(C3CCCCC3)c(C(F)(F)F)c2)ccc1CN1CC(C(=O)O)C1` [BAF-312] (top concentration 46.0829 µM), the viability [1] is reported as 72.5%, the viability [2] is reported as 51.4% and the “area under the dose-response curve” value [3] is reported as 535. For the same compound, the “area under the dose-response curve” value [4] was 465.

In the case of `Cc1nc2cnc3ccc(C#Cc4cccnc4)cc3c2n1-c1ccc(C(C)(C)C#N)cc1` [BAG-956] (top concentration 46.0829 µM), the viability [1] is reported as 0.508%, the viability [2] is reported as 25.4% and the “area under the dose-response curve” value [3] is reported as 207. The “area under the dose-response curve” value [4] was 343.

For `CCOc1ccccc1N/N=C1/C(=O)N(c2nc(-c3ccccc3)cs2)N=C1C` [BAM7] (top concentration 46.0829 µM), the viability [1] was 34.6%, the viability [2] was 49.1% and the “area under the dose-response curve” value [3] was 434. The “area under the dose-response curve” value [4] was 468.

In the case of `COc1ccc(-c2cc3nccn3c(Nc3ncccc3C(N)=O)n2)cc1OC` [BAY61-3606] (top concentration 46.0829 µM), the viability [1] is reported as 59.1%, the viability [2] is reported as 25.8% and the “area under the dose-response curve” value [3] is reported as 496. The “area under the dose-response curve” value [4] was 434.

For `Nc1nc(-c2nn(Cc3ccccc3F)c3ncccc23)nc(N)c1N1CCOCC1` [BAY-41-8543] (top concentration 46.0829 µM), the viability [1] was 82.3%, the viability [2] was 73% and the “area under the dose-response curve” value [3] was 568. The “area under the dose-response curve” value [4] was 503.

For `COC1=C(OCCCN2CCOCC2)C=CC\3=C1/N=C(/NC(=O)C4=CN=C(N)N=C4)N5CC/N=C35` [BAY-80-6946] (top concentration 23.0415 µM), the viability [1] was 32%, the viability [2] was 49.5% and the “area under the dose-response curve” value [3] was 353. The “area under the dose-response curve” value [4] was 398.

For `CN(C)CCN(C)CCc1ccc(Cl)c(Cl)c1` [BD-1047] (top concentration 46.0829 µM), the viability [1] was 81.3%, the viability [2] was 89.9% and the “area under the dose-response curve” value [3] was 484. For the same compound, the “area under the dose-response curve” value [4] was 539.

In the case of `Cn1c(=O)n(-c2ccc(C(C)(C)C#N)cc2)c2c3cc(-c4cnc5ccccc5c4)ccc3ncc21` [BEZ235] (top concentration 46.0829 µM), the viability [1] is reported as 26.5%, the viability [2] is reported as 47.4% and the “area under the dose-response curve” value [3] is reported as 345. For the same compound, the “area under the dose-response curve” value [4] was 425.

In the case of `CCN1CCN(c2ccc(Nc3cc(N(C)C(=O)Nc4c(Cl)c(OC)cc(OC)c4Cl)ncn3)cc2)CC1` [BGJ-398] (top concentration 46.0829 µM), the viability [1] is reported as 2.17%, the viability [2] is reported as 16% and the “area under the dose-response curve” value [3] is reported as 495. The “area under the dose-response curve” value [4] was 465.

In the case of `O=[N+]([O-])c1cnc(Sc2nnc(O)n2-c2ccc3c(c2)OCCO3)s1` [BI-78D3] (top concentration 46.0829 µM), the viability [1] is reported as 0.724%, the viability [2] is reported as -0.375% and the “area under the dose-response curve” value [3] is reported as 349. The “area under the dose-response curve” value [4] was 444.

With `CC[C@@H]1C(=O)N(C)c2cnc(Nc3ccc(C(=O)NC4CCN(C)CC4)cc3OC)nc2N1C1CCCC1` [BI-2536] (top concentration 46.0829 µM) the viability [1] was 4.16%, the viability [2] was 14% and the “area under the dose-response curve” value [3] was 387. For the same compound, the “area under the dose-response curve” value [4] was 318.

For `CCCCCCOC(=O)/N=C(/N)c1ccc(NCc2nc3cc(C(=O)N(CCC(=O)OCC)c4ccccn4)ccc3n2C)cc1` [BIBR 1048] (top concentration 46.0829 µM), the viability [1] was 37.6%, the viability [2] was 35.7% and the “area under the dose-response curve” value [3] was 459. For the same compound, the “area under the dose-response curve” value [4] was 500.

In the case of `C/C(=C\C(=O)Nc1ccccc1C(=O)O)c1ccc2ccccc2c1` [BIBR 1532] (top concentration 46.0829 µM), the viability [1] is reported as 44.8%, the viability [2] is reported as 56.2% and the “area under the dose-response curve” value [3] is reported as 495. For the same compound, the “area under the dose-response curve” value [4] was 513.

With `O=C1Nc2cc(Br)ccc2/C1=C1/Nc2ccccc2/C1=N\O` [BIO] (top concentration 46.0829 µM) the viability [1] was 2.33%, the viability [2] was 15.3% and the “area under the dose-response curve” value [3] was 407. The “area under the dose-response curve” value [4] was 474.

In the case of `Nc1cc(C(F)(F)F)c(-c2cc(N3CCOCC3)nc(N3CCOCC3)n2)cn1` [BKM-120] (top concentration 46.0829 µM), the viability [1] is reported as 20.6%, the viability [2] is reported as 19% and the “area under the dose-response curve” value [3] is reported as 285. The “area under the dose-response curve” value [4] was 388.

For `FC1=CC=C(C=C1)N2/C=C\C=C(C(=O)NC3=CC=C(OC4=C5C=C[NH]C5=NC=C4)C(=C3)F)/C2=O` [BMS-2] (top concentration 46.0829 µM), the viability [1] was 2.79%, the viability [2] was 39.6% and the “area under the dose-response curve” value [3] was 521. The “area under the dose-response curve” value [4] was 485.

In the case of `O=C(Nc1ncc(-c2cc(C(F)F)nn2-c2c(Cl)cccc2Cl)s1)C1CC1` [BMS-3] (top concentration 46.0829 µM), the viability [1] is reported as 29.5%, the viability [2] is reported as 38.2% and the “area under the dose-response curve” value [3] is reported as 385. For the same compound, the “area under the dose-response curve” value [4] was 394.

`CC(C)C(=O)Nc1ncc(-c2cc(C(F)F)nn2-c2c(Cl)cccc2Cl)s1` [BMS-5] (top concentration 46.0829 µM) was tested, and the viability [1] was 41.3%, the viability [2] was 34.6% and the “area under the dose-response curve” value [3] was 459. For the same compound, the “area under the dose-response curve” value [4] was 514.

In the case of `CN(CC(=O)N(Cc1ccc(C2CCCCC2)cc1)c1ccc(C(=O)O)c(O)c1)[S+](=O)([O-])c1c(F)c(F)c(F)c(F)c1F` [BP-1-102] (top concentration 46.0829 µM), the viability [1] is reported as 2.34%, the viability [2] is reported as 16.5% and the “area under the dose-response curve” value [3] is reported as 494. For the same compound, the “area under the dose-response curve” value [4] was 486.

`CC(C)c1cnn2c(NCc3ccccc3)cc(NCCCCCCN)nc12` [BS-181] (top concentration 46.0829 µM) was tested, and the viability [1] was 0.291%, the viability [2] was 17.1% and the “area under the dose-response curve” value [3] was 370. The “area under the dose-response curve” value [4] was 486.

For `CC(C)c1cnn2c(NCc3ccccc3)cc(N[C@@H](CO)[C@H](O)CO)nc12` [BS-194] (top concentration 46.0829 µM), the viability [1] was 57.3%, the viability [2] was 34% and the “area under the dose-response curve” value [3] was 428. The “area under the dose-response curve” value [4] was 389.

Reference: the supplement of paper PMC5412046
